# Experimental data reported in patent US10899758B2, “Inhibitors of the menin-MLL interaction” (Vitae Pharmaceuticals, LLC, priority 2016, dated 2021).
# pEC50, pIC50: −log10 of the molar value.
# Experiments:
# [1] = tested on: human acute monocytic leukemia cell line MV-4-11; assay: Assay 2 (Cell Proliferation Assay), ATP quantitation (CellTiter-Glo); assay type: cell-based; conditions: Homo sapiens, MV4-11, 72 h, MV-4-11 cells, read-out: Assay 2 (EC50, inhibition of cell proliferation)
# Outline: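 Cells (1.67×10^4/well, 10% FBS medium) incubated ±compound 72 h at 37 °C, 5% CO2; HL-60 served as toxicity control. ATP read by CellTiter-Glo luminescence; % inhibition scaled between DMSO and a potent menin inhibitor at ≥100×LD50.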
# [2] = target: T1, menin/MLL binding (biotinylated wild-type or mutated menin and MLL-AF9 fusion protein) (Homo sapiens, UniProt O00255); assay: Assay 1 (Binding Assay): AlphaLISA menin/MLL binding; conditions: 5 nM biotinylated menin, MLL-AF9-FLAG lysate
# T1 construct: biotinylated (1) wild-type menin or (2) mutated menin (described in Nature (2012) Vol. 482, pp. 542-548); fused on or other part: Biotin attached chemically (Sulfo-NHS-Biotin); no fused second protein is printed for menin
# T1 sequence (O00255 1-459 limits assumed): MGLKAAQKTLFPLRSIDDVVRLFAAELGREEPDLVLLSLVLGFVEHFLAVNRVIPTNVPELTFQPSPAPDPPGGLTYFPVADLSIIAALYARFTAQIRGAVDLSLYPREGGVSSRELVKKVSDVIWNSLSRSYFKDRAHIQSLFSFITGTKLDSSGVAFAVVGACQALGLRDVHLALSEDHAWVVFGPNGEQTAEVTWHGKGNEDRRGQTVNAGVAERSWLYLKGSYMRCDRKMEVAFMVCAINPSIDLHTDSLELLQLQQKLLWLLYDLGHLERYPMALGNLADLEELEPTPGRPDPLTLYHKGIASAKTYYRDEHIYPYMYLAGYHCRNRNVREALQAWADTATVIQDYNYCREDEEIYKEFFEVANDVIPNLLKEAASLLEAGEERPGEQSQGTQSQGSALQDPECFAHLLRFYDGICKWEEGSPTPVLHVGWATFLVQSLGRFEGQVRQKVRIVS
# Outline: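 Biotinylated E. coli-expressed menin (wild-type or mutant), 5 nM, incubated 30 min RT with compound and HEK293 lysate of MLL1-1,396–AF9-FLAG in pH 7.4 Tris buffer, 5% DMSO, 1 mM DTT. Anti-FLAG acceptor and streptavidin donor beads added, 60 min RT, AlphaLISA signal read. IC50 from four-parameter fit of % inhibition.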
Structure (SMILES),pEC50 [1],pIC50 [2]
"CC(C)N(C(=O)c1cc(F)ccc1-n1cc(C2CCCN(Cc3ccc4[nH]c(=O)[nH]c4c3)C2)c2ccncc21)C(C)C (stereo not shown) [Example 84A, 5-fluoro-N,N-diisopropyl-2-(3-(1-((2-oxo-2,3-dihydro-1H-benzo[d]imidazol-5-yl)methyl)piperidin-3-yl)-1H-pyrrolo[2,3-c]pyridin-1-yl)benzamide]",> 7.00,> 7.00
"CCN(C(=O)c1cc(F)ccc1-n1cc(C2CCCN(Cc3ccc4c(c3)[nH]c(=O)n4CCO)C2)c2ccncc21)C(C)C (stereo not shown) [Example 49, N-ethyl-5-fluoro-2-(3-(1-((1-(2-hydroxyethyl)-2-oxo-2,3-dihydro-1H-benzo[d]imidazol-5-yl)methyl)piperidin-3-yl)-1H-pyrrolo[2,3-c]pyridin-1-yl)-N-isopropylbenzamide]",> 7.00,> 7.00
"CC(C)N(C)C(=O)c1cc(F)ccc1-n1cc([C@H]2CC[C@@H](N)CC2)c2ccncc21 [Example 58, 2-(3-(cis-4-aminocyclohexyl)-1H-pyrrolo[2,3-c]pyridin-1-yl)-5-fluoro-N-isopropyl-N-methylbenzamide]",≤ 6.00,6.00 to 7.00
"Cc1ccccc1CN1CCC(c2cn(-c3ccc(F)cc3C(=O)N(C)C(C)C)c3cnccc23)CC1 [Example 14, 5-fluoro-N-isopropyl-N-methyl-2-(3-(1-(2-methylbenzyl)piperidin-4-yl)-1H-pyrrolo[2,3-c]pyridin-1-yl)benzamide]",6.00 to 7.00,> 7.00
"CCN(C(=O)c1cc(F)ccc1-n1cc(C2CCCN(Cc3ccc4[nH]c(=O)[nH]c4c3)C2)c2ccncc21)C(C)C (single isomer, unassigned) [Example 47A]",> 7.00,> 7.00
"CC(C)N(C(=O)c1cc(F)ccc1-n1cc(C2CCN(Cc3ccccc3)CC2)c2ccncc21)C(C)C [Example 33, 2-(3-(1-benzylpiperidin-4-yl)-1H-pyrrolo[2,3-c]pyridin-1-yl)-5-fluoro-N,N-diisopropylbenzamide]",> 7.00,> 7.00

# More lines, now with the values ahead:
pEC50 [1],pIC50 [2],Structure (SMILES)
> 7.00,> 7.00,"CC(C)N(C)C(=O)c1cc(F)ccc1-n1cc(C2CCN(Cc3ccc4c(c3)[nH]c(=O)n4CCO)C2)c2ccncc21 (stereo not shown) [Example 123, 5-fluoro-2-(3-(1-((1-(2-hydroxyethyl)-2-oxo-2,3-dihydro-1H-benzo[d]imidazol-5-yl)methyl)pyrrolidin-3-yl)-1H-pyrrolo[2,3-c]pyridin-1-yl)-N-isopropyl-N-methylbenzamide]"
> 7.00,> 7.00,"CC(C)N(C)C(=O)c1cc(F)ccc1-n1cc(C2CCCN(Cc3ccc4c(c3)NC(=O)C4(C)C#N)C2)c2ccncc21 (stereo not shown) [Example 88, 2-(3-(1-((3-cyano-3-methyl-2-oxoindolin-6-yl)methyl)piperidin-3-yl)-1H-pyrrolo[2,3-c]pyridin-1-yl)-5-fluoro-N-isopropyl-N-methylbenzamide]"
6.00 to 7.00,> 7.00,"CC(C)N(C)C(=O)c1cc(F)ccc1-n1cc(C2CCN(C[C@H]3CC[C@H](NS(C)(=O)=O)CC3)C2)c2ccncc21 (stereo partly drawn) [Example 124, N-methyl-5-fluoro-N-isopropyl-2-(3-(1-((trans-4-(methylsulfonamido)cyclohexyl)methyl)pyrrolidin-3-yl)-1H-pyrrolo[2,3-c]pyridin-1-yl)benzamide]"
6.00 to 7.00,> 7.00,"CC(C)N(C)C(=O)c1cc(F)ccc1-n1cc([C@H]2CC[C@H](N3CC[C@H](CO)C3)CC2)c2ccncc21 [Example 104, 5-fluoro-2-(3-(trans-4-((S)-3-(hydroxymethyl)pyrrolidin-1-yl)cyclohexyl)-1H-pyrrolo[2,3-c]pyridin-1-yl)-N-isopropyl-N-methylbenzamide]"
> 7.00,> 7.00,"CC(C)N(C(=O)c1cc(F)ccc1-n1cc(C2CCN(C[C@H]3CC[C@H](NS(C)(=O)=O)CC3)C2)c2ccncc21)C(C)C (stereo partly drawn) [Example 127, 5-fluoro-N,N-diisopropyl-2-(3-(1-((trans-4-(methylsulfonamido)cyclohexyl)methyl)pyrrolidin-3-yl)-1H-pyrrolo[2,3-c]pyridin-1-yl)benzamide]"
